Results taken from patent US20130196937A1, “AGE PRODUCTION INHIBITOR” (ORYZA OIL & FAT CHEMICAL CO., LTD., priority 2010, published 2013).
Marks after values point to notes of the source that are not given here.

Assays:
AGE production = experiment: Test 1: AGE production inhibition (D-glucose + bovine serum albumin, fluorescence); format: biochemical
Protocol: Put the sample solution ([…]) of the concentration of cherry-blossom extract (Example 1) and cherry-leaf extract (Example 2), as shown in the chart, below, into a phosphate buffer solution (pH: […]) containing D-glucose (10%) and into bovine serum albumin (fraction 5.1%) and leave it out at a temperature of 60 degrees centigrade for two days. Dilute the reaction solution with distilled water until the intensity of fluorescent light reaches about 500, thus determining its intensity (measurement wavelength: […]). Also, the extract is to be diluted with distilled water, and the substance, after being dissolved in DMSO (dimethyl sulphoxide), is to be diluted with a phosphate buffer solution until DMSO concentration is of 1%. Each value in Chart 1 indicates an average value with standard error of the three examples. Asterisks (*, **) mean a significant difference (i.e. *: p<0.05; **: p<0.01) between the processed samples and the unprocessed samples as determined by Dunnett's Multiple Comparison Test.

[1] = system: normal diploid fibroblast (PDL22-32 cells); experiment: Test 2-2: fibroblast apoptosis caused by CML-collagen (Caspase Assay), extracts and substances; format: cell-based, human
Protocol: 50 mg of 1 mM HCL was added to 25 mL of bovine skin-derived collagen and dissolved for two hours incubation at the temperature of 37 degrees centigrade, and was shaken as needed. Then, PBS (pH7.4 25 mL) was added to sodium cyanoborohydride (1.42 g) and to glyoxylic acid (0.9 g) and mixed so as to react at the temperature of 37 degrees centigrade for 24 hours. The reaction solution was then put into a dialysis cell of 10,000 molecular mass for a dialysis-with-water test to be conducted for one day and for a dialysis-with-PBS to be conducted for six days. CML-collagen (21 mg) was obtained by freeze-drying the dialysate.
The fibroblast (7×10^4 cells) was suspended in the D-MEM medium containing FCS (0.5%), penicillin (100 units/mL) and streptomycin ([…]) to be seeded within 96-well plates ([…]). After 24 hours of culture, the dissolved CML-collagen solution (2 mg·mL) and the sample solution ([…]) were added to the medium and cultured for 24 hours. Collagen, instead of CML-collagen, was added to Normal group.
The rate of cell survival was measured by MIT Assay. The result is shown in Chart 2. At the same time, a microscopic test was done, of which the result of formazan formation of fibroblast (×100) is shown in FIG. 2. Apoptosis was identified by measuring active caspase-3/7 by the fluorescence method, of which the result is shown in Chart 3, below. Each value of Charts 2 and 3 is indicated by the average value with standard error of the six examples. Asterisks (*, **) mean a significant difference (i.e. *: p<0.05; **: p<0.01) between the unprocessed samples and Dunnett's multiple comparison test, and f represents p<0.05 by Fisher's PLSD Test.
Here, in Test 2-2, respecting the cherry-blossom extract (Example 1), and the cherry-leaf extract (Example 2) and the seven substances contained in the cherry-blossom extract (Example 1): 1-O-(E)-Caffeoyl-β-D-glucopyranoside, 1-O-(E)-Coumaroyl-β-D-Glucopyranosideand, 1-O-(E)-Cinnamoyl-β-D-glucopyranoside, Kaempferol 3-O-3-D-glucopyranoside, Quercetin 3-O-β-D-glucopyranoside, Kaempferol 3-O-(6″-malony)-β-D-glucopyranoside and Quercetin 3-O-(6″-malony)-β-D-glucopyranoside (Examples 3 to 9), the activity against fibroblast apoptosis, caused by CML-collagen, was identified in the same way as in Test 2-1.
Also, in Test 2-2, PDL22-32 cells were used as the normal diploid fibroblast. As a target for comparison, aminoguanidine hydrochloride which is a medicine for the glycation inhibitor was examined in the same way. Each value of Chart 4 indicates an average value with standard error of the five examples. Asterisks (*, **) mean a significant difference (i.e. *: p<0.05; **: p<0.01) between processed samples and unprocessed samples with CML-collagen, determined by Dunnett's Multiple Comparison Test.

human diploid fibroblast = experiment: Test 4: AGE production within the fibroblast processed with glyoxal (Western Blotting); format: cell-based; settings: 1 and 10 mg/mL, 5 days
Protocol: Test 4 examined the activity of the cherry blossom-extract (Example 1) and of the 1-O-(E)-Caffeoyl-β-D-glucopyranoside (Example 3) against the production of AGE (carbon methyl lysine protein) within the fibroblast (human diploid fibroblast) which was processed with glyoxal.
Human diploid fibroblast (passage number 30) was suspended in a D-MEM complete culture media, and 20 mL each was seeded within a cell culture dish of 14 cm in diameter. After 48 hours of culture, samples of various concentrations and of […] of glyoxal were added to 80%-confluent cells and cultured for 5 days. After that, each sample was collected and crushed. Then, protein […] was examined by the Western Blotting method using an anti-AGE antibody to detect AGE. […] In FIG. 6, CaGlu means 1-O-(E)-Caffeoyl-β-D-glucopyranoside (Example 3).

O=C(/C=C/c1ccc(O)c(O)c1)O[C@@H]1OC(CO)[C@@H](O)C(O)C1O (stereo partly drawn) [1-O-(E)-Caffeoyl-β-D-glucopyranoside]
IC50 of AGE production inhibition (AGE production): >300 µg/mL | Inhibition Ratio (%) of AGE production (AGE production; 1 μg/mL): −3.3 ± 0.1% | Inhibition Ratio (%) of AGE production (AGE production; 3 μg/mL): 0.9 ± 0.1% | Inhibition Ratio (%) of AGE production (AGE production; 10 μg/mL): 10.7 ± 0.1** % | Inhibition Ratio (%) of AGE production (AGE production; 30 μg/mL): 19.5 ± 0.3** % | Inhibition Ratio (%) of AGE production (AGE production; 100 μg/mL): 25.0 ± 0.3** % | Inhibition Ratio (%) of AGE production (AGE production; 300 μg/mL): 30.0 ± 0.4** % | Inhibition Ratio (%) of AGE production (AGE production; 300 μg/mL, listed as Example 3): 30% | Inhibition Ratio (%) of fibroblast apoptosis (Caspase Assay) ([1]; 1 μg/mL): 26.2 ± 0.5* % | Inhibition Ratio (%) of fibroblast apoptosis (Caspase Assay) ([1]; 3 μg/mL): 37.6 ± 1.2% | Inhibition Ratio (%) of fibroblast apoptosis (Caspase Assay) ([1]; 10 μg/mL): 72.2 ± 2.7* % | production of AGE within the fibroblast (anti-AGE antibody, FIG. 6) (human diploid fibroblast): inhibited the production of AGE
